Reference: US8993779B2, “Positive allosteric modulators of MGLUR2” (Merck Sharp & Dohme Corp., priority 2010, dated 2015)

Target: T1, recombinant human mGluR2 (Homo sapiens, UniProt Q14416)
T1 construct: expressed in transfected cells
Test: FLIPR Ca2+ mobilization assay, potentiation of mGluR2 receptor
Format: cell-based
Conditions: CHO dhfr- cells expressing human mGluR2 and Gα16; potentiation after EC20 glutamate (900 nM); read-out: FLIPR EC50
Experimental: Activity in potentiating the mGluR2 receptor may be determined as follows. The compounds of the present invention are tested in a fluorescence laser imaging plate reader (FLIPR) based assay. This assay is a common functional assay to monitor Ca^2+ mobilization in whole cells expressing recombinant receptor coupled with a promiscuous G-protein. CHO dhfr-cells stably expressing recombinant human mGluR2 and Gα16 loaded with Fluo-4 AM (Invitrogen, Carlsbad Calif.) are treated with dose responses of compounds and the Ca^2+ response is monitored on a FLIPR384 (Molecular Devices, Sunnydale Calif.) for agonist activity. The potentiation response is monitored after a subsequent addition of an EC20 concentration of glutamate (900 nM). The maximum calcium response at each concentration of compound for agonist or potentiation are plotted as dose responses and the curves are fitted with a four parameters logistic equation giving EC50 and Hill coefficient using the iterative non linear curve fitting software program.

T1 sequence (Q14416 19-872): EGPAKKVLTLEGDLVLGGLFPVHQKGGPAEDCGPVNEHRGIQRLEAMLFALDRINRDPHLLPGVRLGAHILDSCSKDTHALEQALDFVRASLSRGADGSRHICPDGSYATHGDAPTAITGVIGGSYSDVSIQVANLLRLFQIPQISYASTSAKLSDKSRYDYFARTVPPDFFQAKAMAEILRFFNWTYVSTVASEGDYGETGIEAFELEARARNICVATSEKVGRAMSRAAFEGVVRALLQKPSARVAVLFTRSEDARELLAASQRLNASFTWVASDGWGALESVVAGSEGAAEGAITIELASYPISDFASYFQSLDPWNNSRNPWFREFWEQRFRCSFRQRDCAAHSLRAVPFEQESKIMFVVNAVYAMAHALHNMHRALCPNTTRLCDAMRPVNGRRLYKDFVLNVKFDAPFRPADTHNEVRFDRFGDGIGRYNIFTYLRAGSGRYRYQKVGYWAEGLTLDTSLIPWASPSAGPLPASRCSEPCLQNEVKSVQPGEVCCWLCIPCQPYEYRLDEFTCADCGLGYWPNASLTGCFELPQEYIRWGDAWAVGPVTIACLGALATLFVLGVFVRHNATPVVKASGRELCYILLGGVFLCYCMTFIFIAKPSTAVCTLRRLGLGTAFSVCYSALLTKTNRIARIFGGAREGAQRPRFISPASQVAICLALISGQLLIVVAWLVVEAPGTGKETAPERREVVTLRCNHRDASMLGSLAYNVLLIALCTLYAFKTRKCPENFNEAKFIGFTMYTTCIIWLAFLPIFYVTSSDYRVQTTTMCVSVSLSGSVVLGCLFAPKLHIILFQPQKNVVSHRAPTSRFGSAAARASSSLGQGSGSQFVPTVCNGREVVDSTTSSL

SMILES	EC50 [nM]
N#CCn1c(=O)n(CC2CC2)c2ccc(-c3ccccc3)cc21 [Example 1-9, [3-(cyclopropylmethyl)-2-oxo-6-phenyl-2,3-dihydro-1H-benzimidazol-1-yl]acetonitrile]	264
COc1ncc(-c2ccc3c(c2)n(C)c(=O)n3CC(C)(C)C)c(OC)n1 [Example 1-61, 5-(2,4-dimethoxypyrimidin-5-yl)-1-(2,2-dimethylpropyl)-3-methyl-1,3-dihydro-2H--benzimidazol-2-one]	2660
Cc1ccc(-c2ccc3c(c2)n(C)c(=O)n3CC(C)(C)C)c(C#N)c1 [Example 1-94, 2-[1-(2,2-dimethylpropyl)-3-methyl-2-oxo-2,3-dihydro-1H-benzimidazol-5-yl]-5-methylbenzonitrile]	41
Cn1c(=O)n(CC(C)(C)C)c2ccc(-c3ncccc3C(F)(F)F)cc21 [Example 1-148, 1-(2,2-dimethylpropyl)-3-methyl-5-[3-(trifluoromethyl)pyridin-2-yl]-1,3-dihydro-2H-benzimidazol-2-one]	126
Cn1c(=O)n(CC(C)(C)C)c2ccc(-c3ccc4c(c3)CN(C(=O)OC(C)(C)C)CC4)cc21 [Example 1-187, tert-butyl 7-[1-(2,2-dimethylpropyl)-3-methyl-2-oxo-2,3-dihydro-1H-benzimidazol-5-yl]-3,4-dihydroisoquinoline-2(1H)-carboxylate]	182
Cn1c(=O)n(CC(C)(C)C)c2ccc(-c3cccc(Oc4cc(C(F)(F)F)ccn4)c3)cc21 [Example 2-4, 1-(2,2-dimethylpropyl)-3-methyl-5-(3-{[4-(trifluoromethyl)pyridin-2-yl]oxy}phenyl)-1,3-dihydro-2H-benzimidazol-2-one]	496
Cn1c(=O)n(CC(C)(C)C)c2ccc(-c3cc(C#N)cc(Oc4ccnc(C#N)c4)c3)cc21 [Example 2-38, 4-{3-cyano-5-[1-(2,2-dimethylpropyl)-3-methyl-2-oxo-2,3-dihydro-1H-benzimidazol-5-yl]phenoxy}pyridine-2-carbonitrile]	41

Further lines, results first:

EC50 [nM]	SMILES
3650	Cn1c(=O)n(CC(C)(C)C)c2ccc(-c3cccc(OCc4ccccc4C(F)(F)F)c3)cc21 [Example 3-3, 1-(2,2-dimethylpropyl)-3-methyl-5-(3-{[2-(trifluoromethyl)benzyl]oxy}phenyl)-1,3-dihydro-2H-benzimidazol-2-one]
1250	Cn1c(=O)n(CC(C)(C)C)c2ccc(-c3cccc(Oc4ccccc4)c3)cc21 [Example 4-8, 1-(2,2-dimethylpropyl)-3-methyl-5-(3-phenoxyphenyl)-1,3-dihydro-2H-benzimidazol-2-one]
3350	CN1CCCC(Oc2cccc(-c3ccc4c(c3)n(C)c(=O)n4CC(C)(C)C)n2)C1 (stereo not shown) [Example 5-12, 1-(2,2-dimethylpropyl)-3-methyl-5-{6-[(1-methylpiperidin-3-yl)oxy]pyridin-2-yl}-1,3-dihydro-2H-benzimidazol-2-one]
364	Cn1c(=O)n(CC(C)(C)C)c2ccc(-c3cncc(Oc4ccc(C#N)nc4)n3)cc21 [Example 5-22, 5-({6-[1-(2,2-dimethylpropyl)-3-methyl-2-oxo-2,3-dihydro-1H-benzimidazol-5-yl]pyrazin-2-yl}oxy)pyridine-2-carbonitrile]
45	Cn1c(=O)n(-c2cccc(C(F)(F)F)c2)c2ccc(-c3ccccc3C#N)cc21 [Example 6-9, 2-{3-methyl-2-oxo-1-[3-(trifluoromethyl)phenyl]-2,3-dihydro-1H-benzimidazol-5-yl}benzonitrile]
781	CN1CCN(c2ccc(-c3ccc4c(c3F)n(C)c(=O)n4CC3(C)CC3)cn2)CC1 [Example 7-19, 4-fluoro-3-methyl-1-[(1-methylcyclopropyl)methyl]-5-[6-(4-methylpiperazin-1-yl)pyridin-3-yl]-1,3-dihydro-2H-benzimidazol-2-one]
77	Cn1c(=O)n(CC2CC2)c2ccc(-c3ccncc3C(F)(F)F)c(F)c21 [Example 7-47, 1-(cyclopropylmethyl)-4-fluoro-3-methyl-5-[3-(trifluoromethyl)pyridin-4-yl]-1,3-dihydro-2H-benzimidazol-2-one]
40	Cn1c(=O)n(CC(C)(C)C)c2ccc(-c3cc(Oc4cccc(C#N)n4)ccc3C#N)c(F)c21 [Example 8-5, 6-{4-cyano-3-[1-(2,2-dimethylpropyl)-4-fluoro-3-methyl-2-oxo-2,3-dihydro-1H-benzimidazol-5-yl]phenoxy}pyridine-2-carbonitrile]
129	Cn1c(=O)n(CC(C)(C)C)c2ccc(-c3cccc(C(O)c4ccccc4)c3)cc21 (stereo not shown) [Example 10-3, 1-(2,2-dimethylpropyl)-5-{3-[hydroxy(phenyl)methyl]phenyl}-3-methyl-1,3-dihydro-2H-benzimidazol-2-one]
225	Cn1c(=O)n(CC(C)(C)C)c2ccc(-c3cccc(C(C)(O)c4ccccc4)n3)cc21 (stereo not shown) [Example 10-5, 1-(2,2-dimethylpropyl)-5-[6-(1-hydroxy-1-phenylethyl)pyridin-2-yl]-3-methyl-1,3-dihydro-2H-benzimidazol-2-one]

Same assay, conditions: potentiation after EC20 glutamate (900 nM); read-out: EC50 potentiating the mGluR2 receptor in the FLIPR assay

SMILES	EC50 [nM]
Cc1ccccc1-c1ccc2c(c1)n(C)c(=O)n2C1CCN(c2ncccn2)CC1 [Example 1-201, 3-methyl-5-(2-methylphenyl)-1-(1-pyrimidin-2-ylpiperidin-4-yl)-1,3-dihydro-2H-benzimidazol-2-one]	12000
Cc1ccccc1-c1ccc2c(c1)n(C)c(=O)n2C1CCNCC1 [Example 1-202, 3-methyl-5-(2-methylphenyl)-1-piperidin-4-yl-1,3-dihydro-2H-benzimidazol-2-one]	> 30000
Cn1c(=O)n(C2CCNCC2)c2ccc(-c3ccccc3C(N)=O)cc21 [Example 1-203, 2-(3-methyl-2-oxo-1-piperidin-4-yl-2,3-dihydro-1H-benzimidazol-5-yl)benzamide]	> 30000
Cc1ccccc1-c1ccc2c(c1)n(C)c(=O)n2C1CCN(C(=O)OC(C)(C)C)CC1 [Example 1-205, tert-butyl 4-[3-methyl-5-(2-methylphenyl)-2-oxo-2,3-dihydro-1H-benzimidazol-1-yl]piperidine-1-carboxylate]	> 30000
Cn1c(=O)n(C2CCN(c3ncccn3)CC2)c2ccc(-c3ccccc3C(N)=O)cc21 [Example 1-206, 2-[3-methyl-2-oxo-1-(1-pyrimidin-2-ylpiperidin-4-yl)-2,3-dihydro-1H-benzimidazol-5-yl]benzamide]	20000
